# Source: ChEMBL document CHEMBL1121944, “Conformation-activity study of 4-phenylpiperidine analgesics” (1982)
# How the values were obtained:
# [1] = Analgesic activity was determined; format: functional
# [2] = Relative potency was determined to 3-dimethyl prodine after brain penetration; format: functional
structure (smiles),measurement,setting,value
CCC(=O)OC1(c2ccccc2)CCN(C)CC1,ED50,[1],1 mg/kg
same,Relative potency,[2],1
CCC(=O)OC1(c2ccccc2)CCN(C)CC1C (stereo unspecified) [ALPHAPRODINE],ED50,[1],1.45 mg/kg
same,Relative potency,[2],1.24
CCC(=O)O[C@@]1(c2ccccc2)CCN(C)C[C@@H]1C [BETAPRODINE],ED50,[1],5.21 mg/kg
same,Relative potency,[2],1.77
